Laboratory results: patent publication US7947818B2, “Heteromolecular metal-humic (chelate) complexes” (priority 2007, dated 2011)

Experiments:
[1] = system: cucumber plants (sensitive variety, Anico); experiment: Pot study: foliar Fe content of cucumber plants in basic, calcareous soil; assay type: in vivo; conditions: Fe dose 4 ppm; after 30 days of cultivation; soil pH=8.04, % CO3=23%
Description: Study of the effect of applying a heteromolecular humate-iron citrate complex in cucumber plants (sensitive variety, Anico) cultivated in a basic (pH=8.04), calcareous (% CO3=23%) soil. In this study, performed in pots, the effect of the synthesis chelate of reference in correcting iron chlorosis (Fe-EDDHA orto-orto isomer) was compared to the effect of the heteromolecular humate-Fe citrate complex prepared according to Example 1; in relation to these compounds' capacity to increase iron absorption in cucumber (v anico) plants sensitive to iron chlorosis. The results obtained after 30 days of cultivation are shown in the following figure, where the Fe-EDDHA chelate orto-orto isomer is called (o,o) and the heteromolecular complex is called (H-Cit). The Fe doses applied were: 4 ppm (o, o) and 4 and 8 ppm (H-Cit).

nectarine trees = experiment: Field study: iron chlorosis and crop of nectarine trees in basic, calcareous soil; assay type: in vivo; conditions: dose d1 (5 g of Fe per tree)
Method: In this study, the effect of the heteromolecular humate-Fe citrate complex on nectarine trees cultivated in a basic, calcareous soil was analysed. This effect was compared to the effect of an Fe EDDHA chelate of reference. This test was performed in a field with a high chlorotic power, wherein a clear response to the standard Fe chelate (Fe EDDHA) is not observed.

Compound	increase in foliar Fe content [1]	Commercial production increase with respect to control (nectarine trees)	Crop 21 days after treatment (nectarine trees)	Green colour (1-10) 62 days post-treatment (nectarine trees; leaves' green colour)	Green colour (1-10) 85 days post-treatment (nectarine trees; leaves' green colour)
O=C([O-])C(NCCNC(C(=O)[O-])c1ccccc1[O-])c1ccccc1[O-].[Fe+3] (single isomer, unassigned) [(o,o), Fe-EDDHA orto-orto isomer]	approximately 50%	–	–	–	–
Fe EDDHA [FeEDDHA]	–	+57.9	5.8 kg/tree	5.3	5.9
